Experimental data: ChEMBL document CHEMBL1201862, “PubChem BioAssay data set” (2004)
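Compound exposure: 48 hours, 5 concentrations, 96-well plates. GI50 is the concentration that inhibits growth by half.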 The source made the active and inactive calls. Rule as the data show it: active = GI50 up to about 1.1 µM and inactive = higher.

Columns and labels:
Test in all cases: DTP human tumour cell line panel, 48 h
OVCAR-3 = system: OVCAR-3
HCT-15 = system: HCT-15
A549 = system: A549
EKVX = system: EKVX
NCI-H23 = system: NCI-H23
HCC 2998 = system: HCC 2998
HL-60 = system: HL-60
RXF 393 = system: RXF 393
OVCAR-8 = system: OVCAR-8
HOP-62 = system: HOP-62
SN12C = system: SN12C
UO-31 = system: UO-31
K562 = system: K562
KM12 = system: KM12
COLO 205 = system: COLO 205
SK-MEL-5 = system: SK-MEL-5
786-0 = system: 786-0
NCI-H522 = system: NCI-H522

Row | SMILES | GI50 (OVCAR-3) | GI50 (HCT-15) [µM] | GI50 (A549) | GI50 (EKVX) | GI50 (NCI-H23) | GI50 (HCC 2998) | GI50 (HL-60) | GI50 (RXF 393) | GI50 (OVCAR-8) | GI50 (HOP-62) | GI50 (SN12C) | GI50 (UO-31) | GI50 (K562) | GI50 (KM12) | GI50 (COLO 205) | GI50 (SK-MEL-5) | GI50 (786-0) | GI50 (NCI-H522)
1 | NC(=O)N/C=C1\C(=O)Oc2ccccc2C1=O | 84.7 µM (inactive) | 48.5 | 10 µM (inactive) | > 100 µM (inactive) | > 100 µM (inactive) | > 100 µM (inactive) | 53.8 µM (inactive) | 17.4 µM (inactive) | > 100 µM (inactive) | > 100 µM (inactive) | 64.4 µM (inactive) | 31.9 µM (inactive) | > 100 µM (inactive) | > 100 µM (inactive) | > 100 µM (inactive) | > 100 µM (inactive) |  | 
2 | N=C(N)N/N=C(/CC1OC(=O)c2ccccc21)c1ccc2ccccc2c1 (stereo not given) | 17.5 µM (inactive) | 15.3 |  | 23.1 µM (inactive) | 26.2 µM (inactive) | 17.3 µM (inactive) | 17.8 µM (inactive) |  | 15.8 µM (inactive) | 18.5 µM (inactive) | 19.6 µM (inactive) | 17.8 µM (inactive) | 24.3 µM (inactive) | 12.9 µM (inactive) | 19.6 µM (inactive) | 21.4 µM (inactive) | 17.1 µM (inactive) | 14.2 µM (inactive)
3 | CC(C)C1N2CCCCC2[C@@H]2c3[nH]c4ccccc4c3CCN12 (stereo not given in full) | > 100 µM (inactive) | > 100 | > 100 µM (inactive) | > 100 µM (inactive) | > 100 µM (inactive) | > 100 µM (inactive) | > 100 µM (inactive) | > 100 µM (inactive) | > 100 µM (inactive) | > 100 µM (inactive) | > 100 µM (inactive) | > 100 µM (inactive) | > 100 µM (inactive) |  | > 100 µM (inactive) | > 100 µM (inactive) | > 100 µM (inactive) | 
4 | CC(=O)CCCCO | > 100 µM (inactive) | > 100 | > 100 µM (inactive) | > 100 µM (inactive) | > 100 µM (inactive) |  | > 100 µM (inactive) | > 100 µM (inactive) | > 100 µM (inactive) | > 100 µM (inactive) | > 100 µM (inactive) | > 100 µM (inactive) | > 100 µM (inactive) | > 100 µM (inactive) | > 100 µM (inactive) | > 100 µM (inactive) | > 100 µM (inactive) | > 100 µM (inactive)
5 | COc1cc(Cl)c2c3c(c(C(C)=O)oc13)CCC2 | > 100 µM (inactive) | > 100 | > 100 µM (inactive) | > 100 µM (inactive) | > 100 µM (inactive) | > 100 µM (inactive) | > 100 µM (inactive) | 85.1 µM (inactive) | > 100 µM (inactive) | > 100 µM (inactive) | > 100 µM (inactive) |  | > 100 µM (inactive) |  | > 100 µM (inactive) | > 100 µM (inactive) | > 100 µM (inactive) | 
6 | COc1ccc(C2c3cc4c(cc3OC(O)(CO)C2C(=O)O)OCO4)cc1.COc1ccc(C2c3cc4c(cc3OC3(O)COC(=O)C23)OCO4)cc1 (stereo not given) | 22.4 µM (inactive) | 17.7 | 36.2 µM (inactive) | 31.4 µM (inactive) | 23.4 µM (inactive) | 20.2 µM (inactive) | 17.2 µM (inactive) | 16.9 µM (inactive) | 20.5 µM (inactive) | 33.7 µM (inactive) | 23.7 µM (inactive) | 29.9 µM (inactive) | 19.1 µM (inactive) | 28.2 µM (inactive) | 10.3 µM (inactive) | 19.8 µM (inactive) |  | 
7 | COc1cc(/C=C\c2ccc(Br)cc2)cc(OC)c1OC | 0.000341 µM (active) | 0.00333 | 0.000589 µM (active) | 0.00385 µM (active) | 0.000904 µM (active) | 0.0155 µM (active) | 0.000318 µM (active) |  | 0.00161 µM (active) | 0.01 µM (active) | 0.00168 µM (active) | 0.00321 µM (active) | 0.000386 µM (active) | 0.000612 µM (active) | 0.00486 µM (active) | 0.000527 µM (active) | 0.00043 µM (active) | 0.000357 µM (active)
8 | C[C@]12CC[C@H](OC(=O)Nc3ccccc3)CC1=CC[C@@H]1C2CC[C@]2(C)/C(=N/OC(=O)Nc3ccccc3)CCC12 (stereo not given in full) | > 100 µM (inactive) | 1.77 | 7.85 µM (inactive) | 30.1 µM (inactive) | > 100 µM (inactive) | > 100 µM (inactive) | 5.82 µM (inactive) |  | 22.3 µM (inactive) |  | 1.79 µM (inactive) | 1.92 µM (inactive) | 2.21 µM (inactive) | 8.15 µM (inactive) | 4.49 µM (inactive) | 5.35 µM (inactive) | > 100 µM (inactive) | 
9 | CC[C@@H](C(=O)[C@@H](C)[C@@H](O)[C@H](C)CCc1ccc(C)c(O)c1C(=O)O)[C@H]1O[C@](CC)([C@H]2CC[C@](O)(CC)[C@H](C)O2)C[C@@H]1C [LASALOCID A SODIUM] | 0.637 µM (active) | 3.19 | 2.06 µM (inactive) | 2.16 µM (inactive) | 1.39 µM (inactive) | 1.05 µM (active) | 0.348 µM (active) |  | 2.3 µM (inactive) | 1.38 µM (inactive) | 1.91 µM (inactive) | 3.17 µM (inactive) | 0.664 µM (active) | 1.84 µM (inactive) | 1.1 µM (active) | 1.66 µM (inactive) | 2.9 µM (inactive) | 1.01 µM (active)
